{"source": "patent US20250326733A1", "about": "“A NEW ROUTE FOR SY[…] CHIRAL CANNABINOIDS FROM COUMARINS” (University of Florida Research Foundation, Inc., priority 2021, published 2025)", "key": {"hCB2R [1]": {"target": "T1, hCB2R (Homo sapiens, UniProt P34972)", "T1 sequence (P34972 whole entry)": "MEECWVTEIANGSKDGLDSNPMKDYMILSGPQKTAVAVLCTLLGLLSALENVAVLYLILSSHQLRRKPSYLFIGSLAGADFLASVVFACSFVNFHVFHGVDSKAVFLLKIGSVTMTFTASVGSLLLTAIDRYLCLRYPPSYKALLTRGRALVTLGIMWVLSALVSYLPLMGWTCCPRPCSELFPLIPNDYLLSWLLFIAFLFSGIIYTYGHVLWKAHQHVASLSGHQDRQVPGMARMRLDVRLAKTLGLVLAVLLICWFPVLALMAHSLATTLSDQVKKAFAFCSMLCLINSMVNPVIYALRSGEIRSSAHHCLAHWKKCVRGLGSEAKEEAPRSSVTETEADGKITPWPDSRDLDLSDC", "test": "Functional activity (agonism), TRUPATH assay of Gαiβ3γ9 protein activation", "type": "cell-based", "settings": "for Emax: mean ± SEM, n >= 3"}, "hCB1R [2]": {"target": "T2, hCB1R (Homo sapiens, UniProt P21554)", "T2 sequence (P21554 whole entry)": "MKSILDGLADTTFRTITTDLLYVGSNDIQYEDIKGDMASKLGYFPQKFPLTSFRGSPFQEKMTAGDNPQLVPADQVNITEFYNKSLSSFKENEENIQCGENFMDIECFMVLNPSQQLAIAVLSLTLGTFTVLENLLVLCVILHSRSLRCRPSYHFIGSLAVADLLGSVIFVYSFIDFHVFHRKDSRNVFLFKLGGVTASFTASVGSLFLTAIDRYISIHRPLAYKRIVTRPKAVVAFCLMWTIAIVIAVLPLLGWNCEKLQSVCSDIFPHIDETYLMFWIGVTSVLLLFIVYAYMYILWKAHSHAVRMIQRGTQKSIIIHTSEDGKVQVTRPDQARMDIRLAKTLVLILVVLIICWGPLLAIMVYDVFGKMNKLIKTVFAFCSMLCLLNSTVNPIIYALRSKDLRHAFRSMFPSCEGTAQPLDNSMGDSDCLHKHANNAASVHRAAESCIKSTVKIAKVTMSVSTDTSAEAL", "test": "Functional activity (agonism), TRUPATH assay of Gαiβ3γ9 protein activation", "type": "cell-based", "settings": "for Emax: mean ± SEM, n >= 3, NA = no observable agonism at concentrations up to 31.6 μM"}, "hCB1R [3]": {"target": "T2, hCB1R", "test": "Binding affinity at human cannabinoid receptor 1"}, "hCB2R [4]": {"target": "T1, hCB2R", "test": "Binding affinity at human cannabinoid receptor 2", "settings": "for CB1/CB2: ratio of Ki hCB1R / hCB2R"}, "hCB2R [5]": {"target": "T1, hCB2R", "test": "Stimulation of [35S]GTPγS binding (native G protein activation)", "type": "biochemical"}}, "note": "“Also recorded” adds a separate entry of the source."}
{"smiles": "C=C(C)[C@@H]1CCC(C)=C[C@H]1c1c(O)cc(CCCCC)cc1O", "note": "[CBD, cannabidiol, reference compound]", "values": [{"measurement": "agonism / efficacy (in words)", "setting": "hCB2R [1]; hCB2R", "result": "no efficacy"}, {"measurement": "agonism / efficacy (in words)", "setting": "hCB1R [2]; hCB1R", "result": "no efficacy"}]}
{"smiles": "CCCCCc1cc(O)c2c(c1)OC(C)(C)c1ccc(C)cc1-2", "note": "[CBN, cannabinol, reference compound]", "values": [{"measurement": "Ki", "setting": "hCB1R [3]; Ki (nM), hCB1R", "result": 240, "unit": "nM"}, {"measurement": "Ki", "setting": "hCB1R [3]; pKi, hCB1R, one site, FIG. 5", "result": 631, "unit": "nM"}, {"measurement": "Ki", "setting": "hCB2R [4]", "result": 138, "unit": "nM"}, {"measurement": "CB1/CB2", "setting": "hCB2R [4]", "result": 1.7}]}
{"smiles": "CCCCCCC(C)(C)c1cc(O)c2c(c1)OC(C)(C)c1ccc(C)c(CO)c1-2", "note": "[axCBN-3]", "values": [{"measurement": "potency to stimulate [35S]GTPγS binding, hCB2R versus hCB1R", "setting": "hCB2R [5]; greater at hCB2R than at hCB1R", "result": 2, "unit": "fold"}, {"measurement": "efficacy in [35S]GTPγS binding (in words)", "setting": "hCB2R [5]; relative to CBN", "result": "increased efficacy over CBN"}, {"measurement": "EC50", "setting": "hCB2R [1]", "result": 3.47, "unit": "nM"}, {"measurement": "Emax", "setting": "hCB2R [1]; hCB2R", "result": "0.120 ± 0.0296"}, {"measurement": "Ki", "setting": "hCB1R [3]; Ki (nM), hCB1R", "result": 0.661, "unit": "nM"}, {"measurement": "affinity, fold higher than CBN", "setting": "hCB1R [3]; hCB1R", "result": "approximately 360 fold"}, {"measurement": "affinity (in words)", "setting": "hCB1R [3]; hCB1R / CB1 receptor", "result": "sub-nanomolar; also recorded: picomolar"}, {"measurement": "affinity, fold higher than CBN-DMH reported by Rhee, et al.", "setting": "hCB1R [3]; hCB1R and hCB2R, comparator value from literature", "result": "5-10 fold"}, {"measurement": "pKiLo (low affinity site)", "setting": "hCB1R [3]; hCB1R, two site binding model, FIG. 5", "result": 7.3}, {"measurement": "Ki", "setting": "hCB1R [3]; pKiHi (high affinity site), hCB1R, two site binding model, FIG. 5", "result": 0.398, "unit": "nM"}, {"measurement": "EC50", "setting": "hCB1R [2]", "result": 26.3, "unit": "nM"}, {"measurement": "Emax", "setting": "hCB1R [2]; hCB1R", "result": "0.0807 ± 0.0141"}, {"measurement": "Ki", "setting": "hCB2R [4]", "result": 0.933, "unit": "nM"}, {"measurement": "affinity, fold higher than CBN", "setting": "hCB2R [4]; hCB2R", "result": "~134", "unit": "fold"}, {"measurement": "affinity (in words)", "setting": "hCB2R [4]; hCB2R / CB2 receptor", "result": "sub-nanomolar; also recorded: picomolar"}, {"measurement": "CB1/CB2", "setting": "hCB2R [4]", "result": 0.7}]}
{"smiles": "CCCCCCC(C)(C)c1cc(OC(C)=O)c2c(c1)OC(C)(C)c1ccc(C)c(COC(C)=O)c1-2", "note": "[axCBN-4]", "values": [{"measurement": "agonist activity (in words)", "setting": "hCB2R [5]; hCB2R", "result": "maintained agonist activity"}, {"measurement": "EC50", "setting": "hCB2R [1]", "result": 178, "unit": "nM"}, {"measurement": "Emax", "setting": "hCB2R [1]; hCB2R", "result": "0.120 ± 0.0294"}, {"measurement": "Ki", "setting": "hCB1R [3]; Ki (nM), hCB1R", "result": 1200, "unit": "nM"}, {"measurement": "EC50", "setting": "hCB1R [2]", "result": 7080, "unit": "nM"}, {"measurement": "Emax", "setting": "hCB1R [2]; hCB1R", "result": "0.175 ± 0.0832"}, {"measurement": "Ki", "setting": "hCB2R [4]", "result": 195, "unit": "nM"}, {"measurement": "selectivity for hCB2R over hCB1R", "setting": "hCB2R [4]", "result": 6.2, "unit": "fold"}, {"measurement": "CB1/CB2", "setting": "hCB2R [4]", "result": 6.2}]}
